Laboratory results published in patent US20120264827A1, “SULFANYLAMIDE DERIVATIVES, USES THEREOF AND COMPOSITIONS COMPRISING THEM” (YISSUM RESEARCH DEVELOPMENT COMPANY OF THE HEBREW …, priority 2009, published 2012).

What was measured:
rats = assay: Neurotoxicity, median neurotoxic dose (TD50), rats, oral; details: rats dosed orally
Procedure: The tested compounds were suspended in 0.5% methylcellulose and administered (a) intraperitioneally (ip) to adult male CF no. 1 albino mice (18-25 g) in volume of 0.01 mL/g body weight and (b) orally to adult male Sprague-Dawley albino rats (100-150 g) in volume of 0.04 mL per 10 g of body weight.
The TD50 was determined by varying the dose of the tested compounds until four points were established between the dose level that induced no signs of minimal motor impairment in any of the animals and the dose at which all the animals were considered impaired. […] The PIs were calculated by dividing the TD50 by the ED50.

[1] = test system: maximal electroshock seizure (MES); details: rats, cited from earlier work
[2] = test system: subcutaneous metrazol (pentylenetetrazol) seizure; details: reference AED; species not stated; cited from earlier work

SMILES | TD50 (neurotoxicity) (rats) [mg/kg] | Rat-MES test ED50 ([1]; reference AED) [mg/kg] | PI (TD50/ED50) in rat MES test ([1]; reference or literature compound) | anticonvulsant activity in the scMet test [2]
CCCC(CCC)C(=O)O [VPA, 2-propylpentanoic acid] | 784 |  |  | 
NS(=O)(=O)Cc1noc2ccccc12 [Zonisamide] |  | 21 | 9.1 | does not display anticonvulsant activity
